Source: US8961986B2, “Peptide composition” (Apitope Technology (Bristol) Limited, priority 2000, dated 2015)
“Also recorded” adds a separate entry of the source.

Columns and labels:
[1] = test system: MBP-specific T cell clones; assay: T cell clone (TCC) proliferation assay, fine mapping of MBP epitopes; assay type: cell-based, human; conditions: TCC from MS patients and healthy individuals, proliferative response
Description: MBP-specific T cell lines (TCL) are generated from 8 MS patients and 2 healthy control donors. PBMC from each subject are separated as described above and plated out at 1×10^6 cells/ml in 6-well plates in the presence of MBP (50 μg/ml); a portion of PBMC from each subject is regularly frozen and stored for subsequent restimulations. Seven days later the cells are fed with fresh medium containing 2% IL-2 (Lymphocult-HT; Biotest LTD., Birmingham, UK), and on day 12 of culture all cells are restimulated with antigen, IL-2 and irradiated (2500 Rad) autologous PBMC as a source of antigen presenting cells (APC), at a cell ratio of 1T cell:5 APC. Cells are expanded in IL-2 every 3-4 days, and on day 14 are restimulated with antigen, IL-2 and PBMC, as described above. On the day of the first restimulation cells are examined for specific proliferation to MBP. Briefly, 2×10^4 T cells and 1×10^5 irradiated autologous PBMC are cultured in triplicate, in 96-well round-bottom plates, in the presence of MBP. Cells are cultured for 2 days and pulsed with (^3H)-Thymidine at 0.4 μCi/well during the last 18 hours of the culture. Cells are then harvested as described above, and a TCL is considered to be MBP-specific with a δcpm>1000 and a SI>3.
Following 3 restimulation/expansion cycles TCL are cloned using PHA (Sigma, Poole, Dorset, UK)) in the presence of autologous irradiated PBMC as APC. T cells are plated under limiting dilution conditions at 0.1 cell/well, 0.3 cell/well and 1 cell/well and cultured in Terasaki plates (Nunc International, Costar) with 1×10^4 irradiated PBMC, 5 μg/ml PHA, and 2% IL-2. After 10-12 days, growth-positive wells are expanded onto 96-well round-bottom plates, using 1×10^5 irradiated PBMC, 5 μg/ml PHA and IL-2. Three days later wells are fed with fresh medium containing IL-2, and on day 7 the clones are expanded onto 48-well plates using 5×10^5 irradiated PBMC, PHA and IL-2; at this point clones are tested in proliferation assays for specific responses to MBP. MBP-specific clones are expanded a week later onto 24-well plates, using 1×10^6 irradiated PBMC with PHA or Dynabeads (Dynal, UK) and IL-2. The clones are maintained in 24-well plates using a 7-10 day restimulation/expansion cycle, essentially as described above. The ability of T cell clones (TCC) to recognize the panel of MBP peptides is tested by proliferation assays, as described above.
TCC are generated from 8 MS patients and 2 healthy individuals, and used to clarify the fine specificity of the peptide regions identified in the kinetic response assay. The specificity of each TCC is tested by its proliferative response to the panel of 15-mer peptides. Clone SD:A7 recognised region 1-24, and within this region this TCC responded to a.a. 5-19. Region 30-54 is recognised by 4 clones (MS49:D3, MS49:C8, MS49:A8, MS49:B6) and the epitope within this region is 30-44. […] Five clones (MS43:A7, MS41:B6, MS41:A2, MS41:C6, N5:8) recognize a.a. 83-99 which is contained in region 75-99. One patient produced TCC specific for a.a. 110-124 (MS60:A2, MS60:B3), contained within the 105-129 pool, and another TCC from the same patient is specific to 130-144 (MS60:E1), found within the 120-144 region. Five individuals produce clones which recognize epitopes within the region 135-159: MS60:F7, MS60:D1, MS59:F1 and N5:19 recognizes a.a. 140-154; MS57:A1 is specific to 140-149, and TCC MS17:A3 responds to sequence 130-144. […] Lastly, region 150-170 is recognized by 2 clones specific to a.a. 156-169.

[2] = test system: fixed Mgar (HLA-DR2+ve) APC presenting to T cells from DR2:MBP 82-100 transgenic mouse; assay: Antigen-presentation assay using an APIPS (fixed APC) with T cells from DR2:MBP82-100 transgenic mouse; assay type: cell-based; conditions: live or p-formaldehyde-fixed Mgar cells, 72 h
Description: Presentation of peptides to T cells isolated from DR2:MBP82-100 transgenic mouse was essentially as described above except APC were plated at 5×10^5 cells per well, T cells were plated at 1×10^5 cells per well, and incubation was allowed to proceed for 72 h prior to the addition of [^3H]-thymidine.
(§1) For any given epitope, there may exist one or more apitopes, capable of being presented to APC without further processing. The presence of apitopes within two regions of MBP is investigated by incubating live or p-formaldehyde-fixed Mgar (HLA-DR2+ve) cells are incubated with overlapping peptides in serum from MBP regions 77-100 (FIG. 12) and 125-148 (FIG. 13) or in serum alone. T cells were added and after 72 h (FIG. 12) or after 48 h (FIG. 13) the T cell proliferative response was measured by ^3H-thymidine uptake. For MBP 77-100, the T cells are isolated from a DR2:MBP 82-100 transgenic mouse, whereas for MBP 130-144 the T cell clone MS17:A3 is used.

[3] = test system: splenocytes from double transgenic mice; assay: Induction of tolerance with Apitope MS7 in double-transgenic mice, splenocyte cytokine ELISA; assay type: in vivo; conditions: 48 hr cultures; subcutaneous/intradermal treatment vs PBS
Description: (§2) Groups of 6 or 7 age (8-12 weeks) and sex matched double transgenic mice were used. In the first experiment one group was treated ten times intranasally with 100 μg Apitope MS7 in […] at regular intervals over a period of three weeks. The control group received PBS alone. In the second experiment the same amount of peptide was given by subcutaneous/intradermal administration in […] PBS. The control group received the same volume of PBS.
In the second experiment, where tolerance induction was induced via the subcutaneous/intradermal route, cell culture supernatants from the splenocytes were collected at 48 and 72 hrs of culture, and assayed for the presence of IFN-γ and interleukin-2 (IL-2) using an enzyme linked immunosorbant assay (ELISA).

[4] = test system: splenocytes from double transgenic mice; assay: Induction of tolerance with Apitope MS7 in HLA:DR2 / TCR MBP 82-100 double-transgenic mice, splenocyte proliferation; assay type: in vivo
Description: as §2
Three days after the last administration of peptide or PBS, the spleens were harvested and cell suspensions prepared. The splenocytes were incubation with 0.5 or 5 μg/ml Apitope MS7, and assessed for proliferation by [^3H]-Thymidine incorporation after 48, 72 and 96 hours of culture. Results are expressed as stimulation indices (SI=counts per minute (cpm) of culture containing antigen/counts per minute without antigen).

HLA-DR2 = HLA-DR2 binding of cocktail peptides; set-up: species or system human
[5] = test system: 81-111-responsive T-cell line and sub-lines; assay: Reactivity of T cell lines and clones from peptide-primed mice to MBP 81-111 region peptides; assay type: cell-based; conditions: six clones generated
Description: In order to investigate T cell reactivity to the 81-111 region of MBP, lymph node cells from mice primed with 81-111 are stimulated with 81-111 in vitro and these cells are tested with a panel of overlapping 10-mer peptides with two residue shifts covering the 81-111 region (namely: 81-90, 83-92, 85-94, 87-96, 89-98, 91-100, 93-102, 95-104, 97-106, 99-108 and 101-111). The response pattern to peptides covering the 89-101 show stimulatory capacity for 5 adjacent peptides (N terminal 87-96 through to 95-104) reflecting the presence of at least two (and perhaps three) distinct epitopes.
In order to investigate this region further, three sub-lines are generated from the original 81-111-responsive T-cell line and these are retested with a panel of overlapping 10-mer peptides with one residue shift covering the 84-106 region. The results reveal the existence of three distinct but overlapping T cell epitopes within the 89-101 sequence: 89-94, 92-98 and 95-101 (see FIG. 14).

HLA-DQ6 = assay: Antigen presentation assay, HLA-DQ6 transfected L-cells; assay type: cell-based, human
Description: MBP peptides 30-44, 130-144 and 139-153 were synthesized using L-amino acids and standard F-moc chemistry on an Abimed AMS 422 multiple peptide synthesiser.
L-cells transfected with either HLA-DQ6, HLA-DR2a or HLA-DR2b, or Mgar cells (EACC, Porton Down, UK) which express HLA-DQ, DP and DR were used as APCs.
T-cell clones MS 49:D3 and MS17:A2 were generated from MS patients and clone N5:19 was generated from a normal individual. All three clones were DR2 positive.
Antigen presenting cells were incubated with the various concentrations of peptide and the appropriate T-cells. Proliferation, and therefore activation, of the T-cells was measured by [^3H]-Thymidine incorporation, and expressed as the stimulation index (SI=corrected counts per minute (ccpm) culture containing peptide/ccpm culture without peptide).

[6] = test system: fixed Mgar (HLA-DR2+ve) APC presenting to T cell clones; assay: Antigen-presentation assay using an APIPS (fixed APC) with human T cell clones; assay type: cell-based; conditions: fixed vs live APC, T cell clone proliferation
Description: Presentation of the peptides to T cell clones is measured by proliferation. APC are fixed in 0.5% paraformaldehyde and plated at 1×10^5 cells per well of a 96-well tissue culture plate. T cells clones are plated at 2×10^4 cells per well in the presence of varying concentrations of peptide. After incubation for 48 h at 37° C., proliferation is measured by [^3H] thymidine incorporation over 16-20 h. Results are compared with the ability of T cells to respond to the epitope presented by live APC.
In order to investigate whether various MBP peptides are apitopes, their capacity to be presented to T-cells by fixed APC is investigated. Live or […] Mgar (HLA-DR2+ve) cells are pre-pulsed with the peptide in serum, or serum alone for 3.5 hours. Excess peptide is then removed from cells and the appropriate T cell clone added. The T cell proliferative response is measured by ^3H-thymidine uptake.
as §1

[7] = test system: lymphocytes from HLA:DR2 (DRB1*1501) transgenic mice; assay: Induction of tolerance with Apitope MS6 in HLA:DR2 transgenic mouse, lymph node cell proliferation; assay type: in vivo
Description: HLA:DR2 transgenic mice aged 8-12 weeks were used in the study. The mice were tolerized by pre-treatment with 100 μg of Apitope MS6 in […] phosphate buffered saline (PBS) or […] alone, by intranasal administration on days −8, −6 and −4 prior to immunisation on day 0.
Following tolerization, mice were immunised subcutaneously with […] an emulsion containing an equal volume of Complete Freund's Adjuvant (CFA) and PBS containing 200 μg of Apitope MS6 and 400 μg heat-killed Mycobacterium tuberculosis. A control group of mice, previously tolerized with PBS intranasally, were immunised without peptide.
At 10 days post subcutaneous immunisation, draining popliteal and inguinal lymph nodes were removed and T-cell activation was assessed by assaying the proliferation of T-cells in response to various concentrations of Apitope MS6. Proliferation was measured by [^3H]-Thymidine incorporation, and expressed as the stimulation index (SI=corrected counts per minute (ccpm) culture containing peptide/ccpm culture without peptide).

[8] = test system: MHC class I or II molecule; conditions: cited from earlier work

In the case of “H-Glu-Asn-Pro-Val-Val-His-Phe-Phe-Lys-Asn-Ile-Val-Thr-Pro-Arg-Thr-Pro-NH2 (H-ENPVVHFFKNIVTPRTP-NH2) [MBP 83-99]”, the “T cell clones (TCC) recognising the peptide” value [1] is reported as “Five”, the “apitope within MBP region 77-100” value [2] is reported as “shown to act as apitopes” and the “IFNγ secretion in splenocyte culture supernatants” value [3] is reported as “impressive reduction in secretion”. The “IL-2 secretion in splenocyte culture supernatants” value [3] was “impressive reduction in secretion”, the “mean SI of splenocyte proliferation, intranasal treatment” value ([4]; 72 hrs, cultures with 5 μg/ml 83-99, PBS control mean SI 89) was 17 and the “mean SI of splenocyte proliferation, subcutaneous treatment” value ([4]; PBS treated animals mean SI 124) was 49. The “splenocyte proliferation after treatment, both routes” value ([4]; intranasal and subcutaneous/intradermal) was “striking reduction in proliferation” and the HLA-DR2 binding (HLA-DR2) was “HLA-DR2 binding”.
In the case of “MBP 92-98: cryptic T cell epitope within MBP 89-101 (IRLFSRD; UniProt P02686 92-98, looked up, fragment)”, the “T cell clones from mice primed with the 89-101 peptide responding” value [5] is reported as “all six clones”.
In the case of “H-Pro-Arg-His-Arg-Asp-Thr-Gly-Ile-Leu-Asp-Ser-Ile-Gly-Arg-Phe-NH2 (H-PRHRDTGILDSIGRF-NH2) [MBP 30-44]”, the “T cell clones (TCC) recognising the peptide” value [1] is reported as 4, the HLA-DQ6 binding (HLA-DQ6) is reported as “HLA-DQ6 binding” and the “proliferative response versus Mgar control cells” value (HLA-DQ6; T-cell clone MS 49:D3, highest peptide concentration) is reported as 1.5 fold. The “presentation by fixed APC without further processing (apitope)” value [6] was “shown to act as apitopes; also recorded: found to be apitopes; also recorded: can be presented by fixed APC without further processing”.
For “H-Gly-Phe-Lys-Gly-Val-Asp-Ala-Gln-Gly-Thr-Leu-Ser-Lys-Ile-Phe-NH2 (H-GFKGVDAQGTLSKIF-NH2) [MBP 140-154]”, the “T cell clones (TCC) recognising the peptide” value [1] was “responded”, the “T cell clones (TCC) recognising the peptide” value ([1]; listed as 140-154) was “recognizes” and the “SI median of lymphocyte proliferation after intranasal pre-treatment” value ([7]; Group B, 100 μg intranasal days -8, -6, -4, recall peptide 150 μg/ml (PBS group SI median 2.5 to 10)) was 3. The “tolerance induction in lymphocytes from HLA-DR2 mice” value ([7]; intranasal pre-treatment) was “has induced tolerance”, the “identified as apitope in WO 03/064464” value [8] was “apitopes” and the HLA-DR2 binding (HLA-DR2) was “HLA-DR2 binding”.
